From ChEMBL document CHEMBL1133337, “Synthesis and transfection properties of novel non-toxic monocationic lipids. Variation of lipid anchor, spacer and head group structure” (2000)

Columns and labels:
Format in all cases: functional, Cercopithecidae
COS-7 [1] = test: Transfection efficiency when the compound/DNA charge ratio was 5:1
COS-7 [2] = test: Transfection efficiency when the compound/DNA charge ratio was 7:1
COS-7 [3] = test: Transfection efficiency when the compound/DNA charge ratio was 9:1
COS-7 [4] = test: Transfection efficiency when the compound/DNA charge ratio was 15:1
COS-7 [5] = test: Transfection efficiency when the compound/DNA charge ratio was 3:1
COS-7 [6] = test: Transfection efficiency when the compound/DNA charge ratio was 13:1
COS-7 [7] = test: Transfection efficiency when the compound/DNA charge ratio was 11:1
COS-7 [8] = test: Transfection efficiency when the compound/DNA charge ratio was 1:1

| Structure (SMILES) | Transfection efficiency (COS-7 [1]) | Transfection efficiency (COS-7 [2]) | Transfection efficiency (COS-7 [3]) | Transfection efficiency (COS-7 [4]) | Transfection efficiency (COS-7 [5]) | Transfection efficiency (COS-7 [6]) | Transfection efficiency (COS-7 [7]) | Transfection efficiency (COS-7 [8]) |
| --- | --- | --- | --- | --- | --- | --- | --- | --- |
| CC(C)CCCC(C)[C@H]1CC[C@H]2C3CC=C4C[C@@H](OC(=O)C[N+](C)(C)CCO)CCC4(C)[C@H]3CCC12C (stereo partly specified) | 18500 RLU (ug of protein)-1 | 26500 RLU (ug of protein)-1 | 29600 RLU (ug of protein)-1 | 31000 RLU (ug of protein)-1 | 4800 RLU (ug of protein)-1 | 30000 RLU (ug of protein)-1 | 31100 RLU (ug of protein)-1 | 4300 RLU (ug of protein)-1 |
| CC(C)CCCC(C)[C@H]1CC[C@H]2C3CC=C4C[C@@H](OC(=O)OCC[N+](C)(C)C)CCC4(C)[C@H]3CCC12C (stereo partly specified) | 77200 RLU (ug of protein)-1 | 45400 RLU (ug of protein)-1 | 11400 RLU (ug of protein)-1 | 2000 RLU (ug of protein)-1 | 97200 RLU (ug of protein)-1 | 2200 RLU (ug of protein)-1 | 3600 RLU (ug of protein)-1 | 48500 RLU (ug of protein)-1 |
| CC(C)CCCC(C)[C@H]1CC[C@H]2C3CC=C4C[C@@H](OC(=O)CCC(=O)OCCN(C)C)CCC4(C)[C@H]3CCC12C (stereo partly specified) | 12200 RLU (ug of protein)-1 | 10600 RLU (ug of protein)-1 | 9600 RLU (ug of protein)-1 | 6700 RLU (ug of protein)-1 | 27000 RLU (ug of protein)-1 | 7200 RLU (ug of protein)-1 | 7500 RLU (ug of protein)-1 | 14000 RLU (ug of protein)-1 |
| CCCCCCCCCCCCCCOCC(COC(=O)C[N+](C)(C)C)OCCCCCCCCCCCCCC (stereo unspecified) | 10000 RLU (ug of protein)-1 | 15100 RLU (ug of protein)-1 | 17700 RLU (ug of protein)-1 | 31400 RLU (ug of protein)-1 | 4100 RLU (ug of protein)-1 | 29400 RLU (ug of protein)-1 | 18700 RLU (ug of protein)-1 | 4200 RLU (ug of protein)-1 |
| CC(C)CCCC(C)[C@H]1CC[C@H]2C3CC=C4C[C@@H](OC(=O)CCC(=O)OCCCN(C)C)CCC4(C)[C@H]3CCC12C (stereo partly specified) | 9200 RLU (ug of protein)-1 | 8900 RLU (ug of protein)-1 | 9100 RLU (ug of protein)-1 | 4700 RLU (ug of protein)-1 | 9200 RLU (ug of protein)-1 | 6100 RLU (ug of protein)-1 | 6000 RLU (ug of protein)-1 | 8000 RLU (ug of protein)-1 |
| CC(C)CCCC(C)[C@H]1CC[C@H]2C3CC=C4C[C@@H](OC(=O)OCCN(C)C)CCC4(C)[C@H]3CCC12C (stereo partly specified) | 76600 RLU (ug of protein)-1 | 41800 RLU (ug of protein)-1 | 24800 RLU (ug of protein)-1 | 7400 RLU (ug of protein)-1 | 93000 RLU (ug of protein)-1 | 10900 RLU (ug of protein)-1 | 15200 RLU (ug of protein)-1 | 40500 RLU (ug of protein)-1 |
| CC(C)CCCC(C)[C@H]1CC[C@H]2C3CC=C4C[C@@H](OC(=O)CCC(=O)NCCCN(C)C)CCC4(C)[C@H]3CCC12C (stereo partly specified) | 22500 RLU (ug of protein)-1 | 14800 RLU (ug of protein)-1 | 9800 RLU (ug of protein)-1 | 8000 RLU (ug of protein)-1 | 37300 RLU (ug of protein)-1 | 7900 RLU (ug of protein)-1 | 8800 RLU (ug of protein)-1 | 12800 RLU (ug of protein)-1 |
| CC(C)CCCC(C)[C@H]1CC[C@H]2C3CC=C4C[C@@H](OC(=O)OCC[N+](C)(C)CCO)CCC4(C)[C@H]3CCC12C (stereo partly specified) | 25500 RLU (ug of protein)-1 | 10500 RLU (ug of protein)-1 | 8700 RLU (ug of protein)-1 | 5300 RLU (ug of protein)-1 | 83200 RLU (ug of protein)-1 | 5000 RLU (ug of protein)-1 | 8100 RLU (ug of protein)-1 | 17300 RLU (ug of protein)-1 |
| CC(C)CCCC(C)[C@H]1CC[C@H]2C3CC=C4C[C@@H](OC(=O)C[N+](C)(C)C)CCC4(C)[C@H]3CCC12C (stereo partly specified) | 20100 RLU (ug of protein)-1 | 5300 RLU (ug of protein)-1 | 4300 RLU (ug of protein)-1 | 1700 RLU (ug of protein)-1 | 86600 RLU (ug of protein)-1 | 2000 RLU (ug of protein)-1 | 2800 RLU (ug of protein)-1 | 17000 RLU (ug of protein)-1 |
| CC(C)CCCC(C)[C@H]1CC[C@H]2C3CC=C4C[C@@H](OC(=O)CCC(=O)NCCN(C)C)CCC4(C)[C@H]3CCC12C (stereo partly specified) | 94100 RLU (ug of protein)-1 | 108900 RLU (ug of protein)-1 | 98100 RLU (ug of protein)-1 | 36500 RLU (ug of protein)-1 | 41100 RLU (ug of protein)-1 | 54300 RLU (ug of protein)-1 | 75400 RLU (ug of protein)-1 | 17000 RLU (ug of protein)-1 |
| CC(C)CCCC(C)[C@H]1CC[C@H]2C3CC=C4C[C@@H](OC(=O)CN(C)C)CCC4(C)[C@H]3CCC12C (stereo partly specified) | 1500 RLU (ug of protein)-1 | 1700 RLU (ug of protein)-1 | 2000 RLU (ug of protein)-1 | 3400 RLU (ug of protein)-1 | 4000 RLU (ug of protein)-1 | 2100 RLU (ug of protein)-1 | 3100 RLU (ug of protein)-1 | 6900 RLU (ug of protein)-1 |
| CCCCCCCCCCCCCCOCC(COC(=O)CN(C)C)OCCCCCCCCCCCCCC (stereo unspecified) | 5500 RLU (ug of protein)-1 | 600 RLU (ug of protein)-1 | 1700 RLU (ug of protein)-1 | 600 RLU (ug of protein)-1 | 8000 RLU (ug of protein)-1 | 2500 RLU (ug of protein)-1 | 1000 RLU (ug of protein)-1 | 3300 RLU (ug of protein)-1 |
